Laboratory results as given in patent US6815546B2, “Analogues of camptothecin, their use as medicaments and the pharmaceutical compositions containing them” (Societe de Recherches et d'Applications Scientifiques …, priority 1995, dated 2004).

Tests used:
Format in all cases: cell-based
[1] = system: L1210 (mouse lymphocytic leukemia); assay: Test on cell proliferation (MTT test), L1210; conditions: 48 hours
Method: (§1) a. Eight tumoral cell lines are used in this study: L1210 (mouse lymphocytic leukemia), HCT15 and LOVO (cell lines of human colon adenocarcinoma), A549 (human lung carcinoma), A172, U373 et U87 (human glioblastoma). All these lines are obtained from the American Type Culture Collection (ATCC), Rockville, Md. The L1210 cell cultures in suspension are cultured in Dulbecco's modified Eagle's medium (DMEM) (BioWhitaker, Verviers, Belgium) together with 10% of foetal calf serum inactivated by heating, 2 mM of glutamine, 50 μg/ml of penicillin and 50 μg/ml of streptomycin. The HT29 cells are cultured in mono-layer cultures in a McCoy 5a medium (Gibco, Paisley, United Kingdom) together with 10% of foetal calf serum inactivated by heat plus 2 mM of glutamine and 50 μg/ml of gentamycin. The other cells are cultured in an Earle's modified essential medium (EMEM; Gibco, Paisley, United Kingdom) together with 5% foetal calf serum inactivated by heat, 2 mM of glutamine, 50 U/ml of penicillin and 50 μg/ml of streptomycin. All the cell lines are cultured at 37° C. in a humidified atmosphere containing 95% air and 5% CO2.
(§2) Inhibition of the tumor cell line proliferation is determined using an MTT test. 1500 L1210 cells in a culture medium (according to the needs of the cell medium) are seeded in a well of a micro-well plate (tissue culture level: 96 wells, flat bottom) 24 hours before treatment with the compounds to be tested. For these dose-response studies, the cells are incubated with each of the compounds to be tested or their corresponding solvent (controls) for 48 hours over a final concentration range of 1.10^−10 to 1.10^−4 M. All the compounds are dissolved just before use in dimethylsulphoxide (DMSO) at a concentration of 50 mM. Other dilutions of the medicaments are carried out in the culture medium. The final concentration of DMSO never exceeds 0.2% (v/v). As controls, the solutions of medicaments are replaced with the solvent which is diluted successively in the same way as the compounds to be tested.
(§3) After the incubation period, the labeling reagent MTT (3-[4,5-dimethylthiazol-2-yl]-2,5-diphenyltetrazolium bromide; Thiazol blue, Sigma M 565, Sigma, St Louis, Mo.) is added at a final concentration of 0.3 mg/ml to each well. The cells are incubated for 4 hours at 37° C. in a humidified atmosphere. This stage allows the mitochondrial dehydrogenase of the living cells to convert the yellow tetrazolium salt MTT into crimson formazan crystals. The supernatant part is eliminated and the formazan crystals formed are solubilized with DMSO. The resultant coloured solution is quantified by absorbance at 570 nm by using a multi-cuvette scanning spectrophotometer. The data concerning the proliferation is expressed as a percentage of living cells in the treated wells, divided by the living cells in the controls. Each point represents the average of three independent experiments, each experiment represents six determinations.
(§4) The results are expressed as percentages of the calculated proliferation by the optical density (OD) of the cells treated with a medicament divided by the OD of the control cells (cells treated with DMSO). As represented in Table II, the compounds to be tested have inhibited the proliferation of cells in a dose-dependent manner.

[2] = system: HCT15 (cell lines of human colon adenocarcinoma); assay: Test on cell proliferation (MTT test), HCT15; conditions: 72 hours
Method: as §1, §2, §3
(§5) For the other cell lines (HCT15, LOVO, A549, A172, U373, U87), 1000 to 2000 cells are seeded in the well of a micro-well plate 24 hours before medicinal treatment. […]
as §4

[3] = system: LOVO (cell lines of human colon adenocarcinoma); assay: Test on cell proliferation (MTT test), LOVO; conditions: 72 hours
Method: as §1, §2, §3, §5, §4

[4] = system: A549 (human lung carcinoma); assay: Test on cell proliferation (MTT test), A549; conditions: 72 hours
Method: as §1, §2, §3, §5, §4

[5] = system: A172 (human glioblastoma); assay: Test on cell proliferation (MTT test), A172; conditions: 72 hours
Method: as §1, §2, §3, §5, §4

[6] = system: U373 (human glioblastoma); assay: Test on cell proliferation (MTT test), U373; conditions: 72 hours
Method: as §1, §2, §3, §5, §4

U87 (human glioblastoma) = assay: Test on cell proliferation (MTT test), U87; conditions: 72 hours
Method: as §1, §2, §3, §5, §4

What does the source list for `CCC(O)(CC(=O)O)c1cc2n(c(=O)c1CO)Cc1cc3ccccc3nc1-2` (stereo not shown) [Example 4, 3-hydroxy-3-[8-(hydroxymethyl)-9-oxo-9,11-dihydroindolizino [1,2-b]quinolin-7-yl]pentanoic acid]?
PERCENTAGE OF CELL PROLIFERATION ([1]; 0.1 nM): 92.14%; PERCENTAGE OF CELL PROLIFERATION ([1]; 1 nM): 97.14%; PERCENTAGE OF CELL PROLIFERATION ([1]; 10 nM): 91.08%; PERCENTAGE OF CELL PROLIFERATION ([1]; 100 nM): 86.28%; PERCENTAGE OF CELL PROLIFERATION ([1]; 1 000 nM): 46.79%; PERCENTAGE OF CELL PROLIFERATION ([1]; 10 000 nM): 27.80%; PERCENTAGE OF CELL PROLIFERATION ([1]; 100 000 nM): 8.09%; PERCENTAGE OF CELL PROLIFERATION ([2]; 0.1 nM): 91.00%; PERCENTAGE OF CELL PROLIFERATION ([2]; 1 nM): 92.00%; PERCENTAGE OF CELL PROLIFERATION ([2]; 10 nM): 86.00%; PERCENTAGE OF CELL PROLIFERATION ([2]; 100 nM): 78.00%; PERCENTAGE OF CELL PROLIFERATION ([2]; 1 000 nM): 54.00%; PERCENTAGE OF CELL PROLIFERATION ([2]; 10 000 nM): 20.00%; PERCENTAGE OF CELL PROLIFERATION ([2]; 100 000 nM): 7.00%; PERCENTAGE OF CELL PROLIFERATION ([3]; 0.1 nM): 80.00%; PERCENTAGE OF CELL PROLIFERATION ([3]; 1 nM): 75.00%; PERCENTAGE OF CELL PROLIFERATION ([3]; 10 nM): 79.00%; PERCENTAGE OF CELL PROLIFERATION ([3]; 100 nM): 69.00%; PERCENTAGE OF CELL PROLIFERATION ([3]; 1 000 nM): 38.00%; PERCENTAGE OF CELL PROLIFERATION ([3]; 10 000 nM): 21.00%; PERCENTAGE OF CELL PROLIFERATION ([3]; 100 000 nM): 5.00%; PERCENTAGE OF CELL PROLIFERATION ([4]; 0.1 nM): 71.00%; PERCENTAGE OF CELL PROLIFERATION ([4]; 1 nM): 76.00%; PERCENTAGE OF CELL PROLIFERATION ([4]; 10 nM): 71.00%; PERCENTAGE OF CELL PROLIFERATION ([4]; 100 nM): 56.00%; PERCENTAGE OF CELL PROLIFERATION ([4]; 1 000 nM): 36.00%; PERCENTAGE OF CELL PROLIFERATION ([4]; 10 000 nM): 22.00%; PERCENTAGE OF CELL PROLIFERATION ([4]; 100 000 nM): 12.00%; PERCENTAGE OF CELL PROLIFERATION ([5]; 0.1 nM): 93.00%; PERCENTAGE OF CELL PROLIFERATION ([5]; 1 nM): 92.00%; PERCENTAGE OF CELL PROLIFERATION ([5]; 10 nM): 98.00%; PERCENTAGE OF CELL PROLIFERATION ([5]; 100 nM): 97.00%; PERCENTAGE OF CELL PROLIFERATION ([5]; 1 000 nM): 44.00%; PERCENTAGE OF CELL PROLIFERATION ([5]; 10 000 nM): 31.00%; PERCENTAGE OF CELL PROLIFERATION ([5]; 100 000 nM): 10.00%; PERCENTAGE OF CELL PROLIFERATION ([6]; 0.1 nM): 86.00%; PERCENTAGE OF CELL PROLIFERATION ([6]; 1 nM): 85.00%; PERCENTAGE OF CELL PROLIFERATION ([6]; 10 nM): 89.00%; PERCENTAGE OF CELL PROLIFERATION ([6]; 100 nM): 63.00%; PERCENTAGE OF CELL PROLIFERATION ([6]; 1 000 nM): 30.00%; PERCENTAGE OF CELL PROLIFERATION ([6]; 10 000 nM): 16.00%; PERCENTAGE OF CELL PROLIFERATION ([6]; 100 000 nM): 2.00%; PERCENTAGE OF CELL PROLIFERATION (U87 (human glioblastoma); 0.1 nM): 98.00%; PERCENTAGE OF CELL PROLIFERATION (U87 (human glioblastoma); 1 nM): 101.00%; PERCENTAGE OF CELL PROLIFERATION (U87 (human glioblastoma); 10 nM): 98.00%; PERCENTAGE OF CELL PROLIFERATION (U87 (human glioblastoma); 100 nM): 74.00%; PERCENTAGE OF CELL PROLIFERATION (U87 (human glioblastoma); 1 000 nM): 11.00%; PERCENTAGE OF CELL PROLIFERATION (U87 (human glioblastoma); 10 000 nM): 6.00%; PERCENTAGE OF CELL PROLIFERATION (U87 (human glioblastoma); 100 000 nM): 2.00%
